For 13 compounds, T/C results are on record in PubChem BioAssay AID270 (DTP/NCI, 2004).

Molecules are shown by their SMILES. “And” between values parts separate entries of the source, which are not always exact repeats. Identical values can stand only once. Inconclusive results are not listed.

The subject of this test is BDF1 mice, s.c. Lewis lung carcinoma, T/C %. Kind of test: NCI In Vivo Anticancer Drug Screen. Data for tumor model Lewis Lung Carcinoma (subcutaneous) in B6D2F1 (BDF1) mice. In a few lines: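 Tumor-bearing mice were treated with test compound, and either survival or tumor size was recorded. Values are the treated-group measurement divided by that of the vehicle-treated control group.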

The mark [1] stands for this setting: endpoint: mean tumor weight, dose: 25.0 mg/kg/injection, schedule: Q01DX011 (ip), vehicle: saline, higher = larger tumour.
Setting [2] is: endpoint: mean tumor weight, dose: 100.0 mg/kg/injection, schedule: Q01DX011 (ip), vehicle: saline, higher = larger tumour.
The mark [3] stands for this setting: endpoint: median survival time, dose: 50.0 mg/kg/injection, schedule: Q01DX009 (ip), vehicle: saline, higher = longer survival.

For the compound `CCCCCCC(=O)O[C@H]1CC[C@H]2[C@@H]3CCC4=CC(=O)CC[C@]4(C)[C@H]3CC[C@]12C`, the T/C by setting is: (endpoint: mean tumor weight (est.), dose: 10.0 mg/kg/injection, schedule: Q01DX009 (ip), vehicle: water, higher = larger tumour) 73 % of control; (endpoint: mean tumor weight (est.), dose: 20.0 mg/kg/injection, schedule: Q01DX009 (ip), vehicle: water, higher = larger tumour) 111 % of control; (endpoint: mean tumor weight (est.), dose: 40.0 mg/kg/injection, schedule: Q01DX009 (ip), vehicle: water, higher = larger tumour) 52 % of control; (endpoint: mean tumor weight (est.), dose: 80.0 mg/kg/injection, schedule: Q01DX009 (ip), vehicle: water, higher = larger tumour) 93 % of control; (endpoint: median survival time, dose: 10.0 mg/kg/injection, schedule: Q01DX009 (ip), vehicle: water, higher = longer survival) 115 % of control; (endpoint: median survival time, dose: 80.0 mg/kg/injection, schedule: Q01DX009 (ip), vehicle: water, higher = longer survival) 101 % of control.
In the case of `c1cc2n(n1)CCN2`, the T/C is, setting by setting: (endpoint: mean tumor weight (est.), dose: 50.0 mg/kg/injection, schedule: Q01DX009 (ip), vehicle: saline, higher = larger tumour) 56 % of control; (endpoint: mean tumor weight (est.), dose: 100.0 mg/kg/injection, schedule: Q01DX009 (ip), vehicle: saline, higher = larger tumour) 37 % of control; (endpoint: mean tumor weight (est.), dose: 100.0 mg/kg/injection, schedule: Q04DX003 (ip), vehicle: saline, higher = larger tumour) 70 % of control; (endpoint: mean tumor weight (est.), dose: 200.0 mg/kg/injection, schedule: Q01DX009 (ip), vehicle: saline, higher = larger tumour) 36 % of control; (endpoint: mean tumor weight (est.), dose: 200.0 mg/kg/injection, schedule: Q04DX003 (ip), vehicle: saline, higher = larger tumour) 79 % of control; (endpoint: mean tumor weight (est.), dose: 400.0 mg/kg/injection, schedule: Q04DX003 (ip), vehicle: saline, higher = larger tumour) 57 % of control. For the same compound, the T/C runs as follows: under setting [1], 97 % of control; (endpoint: mean tumor weight, dose: 50.0 mg/kg/injection, schedule: Q01DX011 (ip), vehicle: saline, higher = larger tumour) 84 % of control; under setting [2], 82 % of control; (endpoint: mean tumor weight, dose: 200.0 mg/kg/injection, schedule: Q01DX011 (ip), vehicle: saline, higher = larger tumour) 7 % of control; under setting [3], 122 % of control; (endpoint: median survival time, dose: 100.0 mg/kg/injection, schedule: Q01DX009 (ip), vehicle: saline, higher = longer survival) 100 % of control. Moreover, the T/C runs as follows: (endpoint: median survival time, dose: 100.0 mg/kg/injection, schedule: Q04DX003 (ip), vehicle: saline, higher = longer survival) 102 % of control; (endpoint: median survival time, dose: 200.0 mg/kg/injection, schedule: Q01DX009 (ip), vehicle: saline, higher = longer survival) 100 % of control; (endpoint: median survival time, dose: 400.0 mg/kg/injection, schedule: Q04DX003 (ip), vehicle: saline, higher = longer survival) 88 % of control.
Turning to `CC(C)=CCC/C(C)=C/CO`, the T/C is 74 % of control (endpoint: mean tumor weight, dose: 3.9 mg/kg/injection, schedule: Q01DX011 (ip), vehicle: saline, higher = larger tumour); 85 % of control (endpoint: mean tumor weight, dose: 7.8 mg/kg/injection, schedule: Q01DX011 (ip), vehicle: saline, higher = larger tumour); 71 % of control (endpoint: mean tumor weight, dose: 15.6 mg/kg/injection, schedule: Q01DX011 (ip), vehicle: saline, higher = larger tumour); 68 % of control and 73 % of control (endpoint: mean tumor weight, dose: 31.3 mg/kg/injection, schedule: Q01DX011 (ip), vehicle: saline, higher = larger tumour); 105 % of control (endpoint: mean tumor weight, dose: 62.5 mg/kg/injection, schedule: Q01DX011 (ip), vehicle: saline, higher = larger tumour).
For `COC(=O)C1=C(C(=O)OC)C2CC3C4CC=C5CC(OC(C)=O)CCC5(C)C4CCC3(C)C2=C(OC(C)=O)C1` (stereo not given), the T/C runs as follows: (endpoint: mean tumor weight, dose: 62.5 mg/kg/injection, schedule: Q01DX011 (sc), vehicle: saline, higher = larger tumour) 105 % of control; (endpoint: mean tumor weight, dose: 125.0 mg/kg/injection, schedule: Q01DX011 (sc), vehicle: saline, higher = larger tumour) 99 % of control; (endpoint: mean tumor weight, dose: 250.0 mg/kg/injection, schedule: Q01DX011 (sc), vehicle: saline, higher = larger tumour) 97 % of control.
Regarding `O=C(O)CCC(=O)Nc1nccs1`, the T/C was 77 % of control (endpoint: mean tumor weight, dose: 50.0 mg/kg/injection, schedule: Q01DX011 (ip), vehicle: carboxymethylcellulose (CMC), higher = larger tumour); 83 % of control (endpoint: mean tumor weight, dose: 100.0 mg/kg/injection, schedule: Q01DX011 (ip), vehicle: carboxymethylcellulose (CMC), higher = larger tumour); 68 % of control (endpoint: mean tumor weight, dose: 200.0 mg/kg/injection, schedule: Q01DX011 (ip), vehicle: carboxymethylcellulose (CMC), higher = larger tumour); 101 % of control (endpoint: mean tumor weight, dose: 400.0 mg/kg/injection, schedule: Q01DX011 (ip), vehicle: carboxymethylcellulose (CMC), higher = larger tumour).
With `CCC1NC(=O)C(NC(=O)c2ncccc2O)C(C)OC(=O)C(c2ccccc2)NC(=O)C2CC(=O)CCN2C(=O)C(Cc2ccccc2)N(C)C(=O)C2CCCN2C1=O` (stereo not given) (tested in a mixture with another compound), the T/C was 102 % of control (endpoint: median survival time, dose: 9.4 mg/kg/injection, schedule: Q01DX009 (ip), vehicle: Klucel (hydroxypropylcellulose) (HPC), higher = longer survival); 87 % of control (endpoint: median survival time, dose: 18.75 mg/kg/injection, schedule: Q01DX009 (ip), vehicle: Klucel (hydroxypropylcellulose) (HPC), higher = longer survival); 94 % of control (endpoint: median survival time, dose: 37.5 mg/kg/injection, schedule: Q01DX009 (ip), vehicle: Klucel (hydroxypropylcellulose) (HPC), higher = longer survival).
As to `CCCCCCCCCCCCCS`, the T/C is 106 % of control (endpoint: mean tumor weight, dose: 66.0 mg/kg/injection, schedule: Q01DX011 (ip), vehicle: saline, higher = larger tumour); 77 % of control under setting [2]; 91 % of control (endpoint: mean tumor weight, dose: 150.0 mg/kg/injection, schedule: Q01DX011 (ip), vehicle: saline, higher = larger tumour).
On to `ClCC[N+]12CC[N+](CCCl)(CC1)C2`, for which the T/C reads like this: (endpoint: median survival time, dose: 25.0 mg/kg/injection, schedule: Q01DX009 (ip), vehicle: saline, higher = longer survival) 105 % of control; under setting [3], 106 % of control.
Take `FCCNC1CCCCC1`: the T/C is 99 % of control (endpoint: mean tumor weight, dose: 1.5 mg/kg/injection, schedule: Q01DX011 (ip), vehicle: carboxymethylcellulose (CMC), higher = larger tumour); 89 % of control (endpoint: mean tumor weight, dose: 5.0 mg/kg/injection, schedule: Q01DX011 (ip), vehicle: carboxymethylcellulose (CMC), higher = larger tumour); 68 % of control (endpoint: mean tumor weight, dose: 7.5 mg/kg/injection, schedule: Q01DX011 (ip), vehicle: carboxymethylcellulose (CMC), higher = larger tumour).
Take `O=P(c1ccccc1)(N1CC1)N1CC1`: the T/C is 65 % of control (endpoint: mean tumor weight, dose: 11.0 mg/kg/injection, schedule: Q01DX011 (ip), vehicle: saline, higher = larger tumour); 93 % of control (endpoint: mean tumor weight, dose: 17.0 mg/kg/injection, schedule: Q01DX011 (ip), vehicle: saline, higher = larger tumour); 69 % of control under setting [1]; 38 % of control (endpoint: mean tumor weight, dose: 38.0 mg/kg/injection, schedule: Q01DX011 (ip), vehicle: saline, higher = larger tumour); 52 % of control (endpoint: mean tumor weight, dose: 76.0 mg/kg/injection, schedule: Q01DX011 (ip), vehicle: saline, higher = larger tumour).
`Nc1nc(SCc2ccccc2Cl)c2[nH]cnc2n1`: the T/C is 82 % of control (endpoint: mean tumor weight, dose: 3.8 mg/kg/injection, schedule: Q01DX011 (ip), vehicle: other, higher = larger tumour); 38 % of control (endpoint: mean tumor weight, dose: 7.5 mg/kg/injection, schedule: Q01DX011 (ip), vehicle: other, higher = larger tumour); 99 % of control (endpoint: mean tumor weight, dose: 15.0 mg/kg/injection, schedule: Q01DX011 (ip), vehicle: other, higher = larger tumour); 29 % of control (endpoint: mean tumor weight, dose: 60.0 mg/kg/injection, schedule: Q01DX011 (ip), vehicle: other, higher = larger tumour); 11 % of control (endpoint: mean tumor weight, dose: 120.0 mg/kg/injection, schedule: Q01DX011 (ip), vehicle: other, higher = larger tumour).
Turning to `COc1cc([C@@H]2c3cc4c(cc3[C@H](O)[C@H]3COC(=O)[C@H]23)OCO4)cc(OC)c1OC`, the T/C is 84 % of control (endpoint: mean tumor weight, dose: 1.0 mg/kg/injection, schedule: Q01DX011 (ip), vehicle: carboxymethylcellulose (CMC), higher = larger tumour) and 36 % of control (endpoint: mean tumor weight, dose: 2.0 mg/kg/injection, schedule: Q01DX011 (ip), vehicle: carboxymethylcellulose (CMC), higher = larger tumour).
For `COc1ccccc1NC(=O)N(CCCl)N=O`, the T/C by setting is: (endpoint: median survival time, dose: 0.39 mg/kg/injection, schedule: Q01DX009 (ip), vehicle: saline with Tween-80, higher = longer survival) 95 % of control; (endpoint: median survival time, dose: 0.78 mg/kg/injection, schedule: Q01DX009 (ip), vehicle: saline with Tween-80, higher = longer survival) 88 % of control; (endpoint: median survival time, dose: 1.56 mg/kg/injection, schedule: Q01DX009 (ip), vehicle: saline with Tween-80, higher = longer survival) 93 % of control; (endpoint: median survival time, dose: 3.13 mg/kg/injection, schedule: Q01DX009 (ip), vehicle: saline with Tween-80, higher = longer survival) 98 % of control.
